Data set [1] in a line: Phenytoin dissolution study (spray dried dispersions or crystalline API) in phosphate buffer pH 6.5 with simulated intestinal fluid powder, 37° C., HPLC. It is filed as physicochemical. To be noted: crystalline phenytoin. The procedure: (§1) Samples (either spray dried dispersions or crystalline API as received) were weighed into 2.0 mL conical microcentrifuge tubes in duplicate. Phosphate buffer solution (82 mM sodium chloride, 20 mM sodium phosphate dibasic, 47 mM potassium phosphate monobasic, 0.5 wt % simulated intestinal fluid powder, pH 6.5) at 37° C. was added in an amount that would produce a final concentration of drug of 1000 mg/L if all material was fully dissolved (e.g., 7.2 mg of spray dried dispersion consisting of 1.8 mg griseofulvin and 5.4 mg polymer was diluted with 1.8 mL buffer solution). Samples were vortexed 1 min and set in an isothermal aluminum sample holder set at 37° C. At each time point, samples were centrifuged 1 min at >13,000×g (g=gravitational force on earth), and a 50 μl aliquot was removed and diluted with 250 μl methanol. The samples were again vortexed 30 s and held at 37° C. until the next time point. Drug concentration in each aliquot was determined by reverse phase HPLC.
Probucol and phenytoin concentrations were quantified using a Agilent 1260 Infinity Quaternary HPLC equipped. The HPLC consisted of a reversed-phase EC-C18 column (Poroshell 120, 4.6×50 mm, 2.7 μm, Agilent, USA). The mobile phase was acetonitrile: water 96:4 for probucol and acetonitrile: water 40:60 for phenytoin, and the flow rate was 1.0 mL/min. A 10 μL aliquot of sample was injected, and the column effluent was detected at 241 nm for probucol (eluted at 2.90 min) and 225 nm for phenytoin (eluted at 1.40 min) with a UV detector (1260 Infinity Multiple Wavelength Detector, Agilent). The standard curve linearity was verified from 0.1 to 1000 μg/mL with an r^2 value of at least 0.999.
Two different drugs, probucol and phenytoin, were formulated at different weight percent, using the polymers disclosed herein (see Table 1 for polymer sample numbers). […]

Data set [2] can be described thus: Probucol dissolution study (spray dried dispersions or crystalline API) in phosphate buffer pH 6.5 with simulated intestinal fluid powder, 37° C., HPLC. It is filed as physicochemical. To be noted: pH 6.5, fassif, thermodynamic from solid. The procedure: as §1
Probucol and phenytoin concentrations were quantified using a Agilent 1260 Infinity Quaternary HPLC equipped. […] A 10 μL aliquot of sample was injected, and the column effluent was detected at 241 nm for probucol (eluted at 2.90 min) and 225 nm for phenytoin (eluted at 1.40 min) with a UV detector (1260 Infinity Multiple Wavelength Detector, Agilent). […]

Data on 2 compounds can be found in patent publication US9944740B2, “Sugar containing, amphiphilic copolymers” (REGENTS OF THE UNIVERSITY OF MINNESOTA, priority 2013, dated 2018).

As usually defined, the solubility is the concentration that dissolves in the medium under given conditions.

Structures are written as SMILES. Converted amounts (≈) assume the structure as drawn.

As to `O=C1NC(=O)C(c2ccccc2)(c2ccccc2)N1` [Phenytoin, phenytoin], the “Concentration (phenytoin dissolution control)” value in data set [1] (Time 0) was 0 ng/mL; in data set [1] (Time 4), 38000 ng/mL; in data set [1] (Time 10), 46000 ng/mL; in data set [1] (Time 20), 45000 ng/mL; in data set [1] (Time 40) it was 48000 ng/mL; in data set [1] (Time 90), 51000 ng/mL. Also, the “Concentration (phenytoin dissolution control)” value in data set [1] (Time 180) is 45000 ng/mL; in data set [1] (Time 360) it was 48000 ng/mL.

The compound `CC(C)(Sc1cc(C(C)(C)C)c(O)c(C(C)(C)C)c1)Sc1cc(C(C)(C)C)c(O)c(C(C)(C)C)c1` [probucol] came in with a solubility in data set [2] of 4 µg/mL (≈ 7.74 µM).
